Test results published in patent publication US20260199368A1, “[…] SYSTEM CONTAINING REMIMAZOLAM” (LTS LOHMANN THERAPIE-SYSTEME AG, priority 2022, published 2026).

Legend:
[1] = Mucosa permeation study (in vitro permeation test); assay type: in vitro ADME, pig
Description: Where not otherwise indicated, the in vitro permeation test is performed with dermatomed split-thickness pig mucosa (mucosa oesophagus) with a thickness of 400 μm and an intact barrier function, and with phosphate buffer pH 7.4 as receptor medium (37° C.). The amount of active permeated into the receptor medium is determined in regular intervals using an HPLC method with a UV photometric detector by taking a sample volume. The measured amount of active permeated relates to the amount permeated between the two last sampling points and not the total amount permeated so far. Within the meaning of this invention, artificial saliva refers to an aqueous solution of 0.520 g/L potassium thiocyanate, 1.470 g/L potassium chloride, 0.190 g/L sodium dihydrogenphosphate monohydrate and 2.650 g/L sodium hydrogenphosphate dihydrate, adjusted to a pH of 7.0+/−0.05 using 1 N NaOH.
For the investigation of the potential impact of pH on the permeation, a permeation study was performed to assess the permeation of remimazolam besylate (RMZ besylate) through the mucosa in dependence of pH value. In a second run, also the performance of remimazolam lyophilizate product (RMZ besylate) vs. oromucosal delivery system was assessed.
The samples used for permeation run 1 are defined in Table 19.
The permeated amount and the corresponding mucosa permeation rates of the oromucosal delivery system prepared according to Examples 2a were determined by in vitro experiments in accordance with the OECD Guideline (adopted Apr. 13, 2004) using pig mucosa with a thickness of 400 μm (mucosa oesophagus). The donor solutions were prepared by dissolving a sample film of Example 2a with a size of 5.75 cm^2 either in 5 ml artificial saliva or in 5 ml 0.9% NaCl. The remimazolam besylate was dissolved in artificial saliva so that the applied dose of RMZ was equivalent to an oromucosal delivery system containing 50 mg remimazolam in 500 μL medium, and the pH of the mixture was adjusted as indicated in Table 19. The pH was measured using a pH electrode. The permeation donor solutions were directly applied to the mucosa (diffusion area of 4.524 cm^2). The remimazolam permeated amount in the receptor medium (phosphate buffer solution pH 7.4) at a temperature of 37±1° C. was measured and the corresponding mucosa permeation rate calculated.
Due to the high variability in permeation run 1 (n=3), a second permeation experiment was performed with more replicates (n=6) to enlarge the data basis. The samples used are defined in table 15. Example 2a and Lyophilizate were dissolved in artificial saliva and 0.9% NaCl, respectively. Due to a pH adjustment in the lyophilizate/drug product, the resulting pH was slightly lower (pH 3.14 and pH 3.09) than with the Example 2a without pH adjustment (pH 3.67 and pH 3.50). A RMZ sample set to pH 3 served as a control.
The permeated amount and the corresponding mucosa permeation rates of the oromucosal delivery system prepared according to Examples 2a were determined as outlined above. The remimazolam permeated amount in the receptor medium (phosphate buffer solution pH 7.4) at a temperature of 37±1° C. was measured and the corresponding mucosa permeation rate calculated.

[2] = test system: Goettingen minipigs; experiment: In vivo studies using Goettingen minipigs: depth of sedation score; details: Animal No 1; 10 min post dosing; IV, 2 mL of 5 mg/mL (10 mg)

## COC(=O)CC[C@@H]1N=C(c2ccccn2)c2cc(Br)ccc2-n2c(C)cnc21.O=S(=O)(O)c1ccccc1 [RMZ, remimazolam besylate]
[1]; artificial saliva, pH 4.5 and pH 6
  permeation rate (assessment): poor
[1]; n = 3, in artificial saliva (pH 2), 2.5 min
  mucosa permeation rate: 1.98 μg/cm^2 min
[1]; n = 3, in artificial saliva (pH 2), 7.5 min
  mucosa permeation rate: 2.09 μg/cm^2 min
[1]; n = 3, in artificial saliva (pH 2), 12.5 min
  mucosa permeation rate: 1.83 μg/cm^2 min
[1]; n = 3, in artificial saliva (pH 2), 17.5 min
  mucosa permeation rate: 1.95 μg/cm^2 min
[1]; n = 3, in artificial saliva (pH 2), 22.5 min
  mucosa permeation rate: 1.92 μg/cm^2 min
[1]; n = 3, in artificial saliva (pH 2), 27.5 min
  mucosa permeation rate: 2.04 μg/cm^2 min
[1]; n = 3, in artificial saliva (pH 2), 45 min
  mucosa permeation rate: 1.36 μg/cm^2 min
[1]; n = 3, in artificial saliva (pH 3), 2.5 min
  mucosa permeation rate: 0.19 μg/cm^2 min
[1]; n = 3, in artificial saliva (pH 3), 7.5 min
  mucosa permeation rate: 0.75 μg/cm^2 min
[1]; n = 3, in artificial saliva (pH 3), 12.5 min
  mucosa permeation rate: 1.18 μg/cm^2 min
[1]; n = 3, in artificial saliva (pH 3), 17.5 min
  mucosa permeation rate: 1.43 μg/cm^2 min
[1]; n = 3, in artificial saliva (pH 3), 22.5 min
  mucosa permeation rate: 1.62 μg/cm^2 min
[1]; n = 3, in artificial saliva (pH 3), 27.5 min
  mucosa permeation rate: 1.80 μg/cm^2 min
[1]; n = 3, in artificial saliva (pH 3), 45 min
  mucosa permeation rate: 1.60 μg/cm^2 min
[1]; n = 3, in artificial saliva (pH 4.5), 2.5 min
  mucosa permeation rate: 0.09 μg/cm^2 min
[1]; n = 3, in artificial saliva (pH 4.5), 7.5 min
  mucosa permeation rate: 0.37 μg/cm^2 min
[1]; n = 3, in artificial saliva (pH 4.5), 12.5 min
  mucosa permeation rate: 0.22 μg/cm^2 min
[1]; n = 3, in artificial saliva (pH 4.5), 17.5 min
  mucosa permeation rate: 0.26 μg/cm^2 min
[1]; n = 3, in artificial saliva (pH 4.5), 22.5 min
  mucosa permeation rate: 0.34 μg/cm^2 min
[1]; n = 3, in artificial saliva (pH 4.5), 27.5 min
  mucosa permeation rate: 0.58 μg/cm^2 min
[1]; n = 3, in artificial saliva (pH 4.5), 45 min
  mucosa permeation rate: 0.26 μg/cm^2 min
[1]; n = 3, in artificial saliva (pH 6), 2.5 min
  mucosa permeation rate: 0.11 μg/cm^2 min
[1]; n = 3, in artificial saliva (pH 6), 7.5 min
  mucosa permeation rate: 0.18 μg/cm^2 min
[1]; n = 3, in artificial saliva (pH 6), 12.5 min
  mucosa permeation rate: 0.18 μg/cm^2 min
[1]; n = 3, in artificial saliva (pH 6), 17.5 min
  mucosa permeation rate: 0.31 μg/cm^2 min
[1]; n = 3, in artificial saliva (pH 6), 22.5 min
  mucosa permeation rate: 0.37 μg/cm^2 min
[1]; n = 3, in artificial saliva (pH 6), 27.5 min
  mucosa permeation rate: 0.58 μg/cm^2 min
[1]; n = 3, in artificial saliva (pH 6), 45 min
  mucosa permeation rate: 0.47 μg/cm^2 min
[1]; n = 6, in artificial saliva (pH 3), 2.5 min
  mucosa permeation rate: 0.01 μg/cm^2 min
[1]; n = 6, in artificial saliva (pH 3), 7.5 min
  mucosa permeation rate: 0.21 μg/cm^2 min
[1]; n = 6, in artificial saliva (pH 3), 12.5 min
  mucosa permeation rate: 0.65 μg/cm^2 min
[1]; n = 6, in artificial saliva (pH 3), 17.5 min
  mucosa permeation rate: 1.08 μg/cm^2 min
[1]; n = 6, in artificial saliva (pH 3), 22.5 min
  mucosa permeation rate: 1.38 μg/cm^2 min
[1]; n = 6, in artificial saliva (pH 3), 27.5 min
  mucosa permeation rate: 1.56 μg/cm^2 min
[1]; n = 6, in artificial saliva (pH 3), 45 min
  mucosa permeation rate: 1.23 μg/cm^2 min
[1]; run 2, n = 6, 0.9% NaCl and artificial saliva
  mucosa permeation, comparison between samples: no significant difference
[2]
  Sedation/anaesthesia score: ¾
